These results are taken from patent US11154565B2, “Process for preparing a stable emulsion comprising one or more avermectins” (GALDERMA HOLDING SA, priority 2015, dated 2021).

The nature of this data set: Chemical stability of ivermectin in the composition on storage. The note with it: composition obtained according to the invention. The format is physicochemical.

In the case of ivermectin, the “chemical stability of ivermectin” value (stored for 6 months at 40° C.) is “chemically stable” and the “chemical stability of ivermectin” value (stored for 12 months at room temperature) is on record as “chemically stable”.
